Source: US4578382A, “4-acylamino-1-azaadamantanes, and compositions for use thereof in medicine” (Etablissements Nativelle S.A., priority 1981, dated 1986)
Where two headings read alike, the source gives them in different places.

How the values were obtained:
anesthetized dog [1] = test: Electrophysiological studies on the anesthetized dog; assay type: in vivo; settings: i.v., doses 0.1 to 1.4 mg/kg; 1 evaluation
Procedure: This study was carried out on dogs anesthetized with pentobarbital, with a closed thorax, by means of bipolar catheter-electrodes introduced into the cardiac cavities by transcutaneous venous and arterial means. The surface electrocardiogram (standard derivation D2) is recorded permanently.
By means of a programmable JANSEN (R) stimulator, the following parameters may be measured:
spontaneous cardiac frequency (FC);
sinus recuperation time (SRTc) after auricular stimulation imposed at 160 b/mn for 1 mn;
intracardiac conduction times (auriculohisien at a constant frequency, His-Purkinje, intraventricular);
the effective and functional refractory periods measured at an imposed constant frequency, with the extrastimulus method.
During the electrophysiological study, the derivatives were injected intravenously for 2 minutes for each dose and at 30 minute intervals between each dose. The doses are expressed as a cumulative value and as a base term.
The measurement of the various parameters was carried out before the injection of the first dose (control period) and from 10 to 28 minutes after the injection of each dose of the substance. The results are expressed as a percentage of variation in relation to the control period.

[2] = system: ventricular arrhythmias with adrenalin; test: Test with adrenalin after experimental infarct; assay type: in vivo, dog
From the text: (§1) Narcisse et al, Ann. Pharma. Fr., 37, 325-330 (1979), in the rat by the aconitine intoxication test of S. Witchitz et al, Coeur Med. Int., X(2), 281-286, (1971) and in the dog by the Harris test described in Circulation, 1, 1318, (1950) and by the test with adrenalin after experimental infarct of I. J. Steffe et al, J. Pharmacol. Exp. Ther., 214, 50-57 (1980).
2 to 5 days after an experimental infarct, the effects of discontinuous injections (in intravenous bolus of […] of basic adrenalin) of adrenalin were observed on the electrocardioagram of the conscious dog.
During a first phase (control) of the experiment, three successive injections of adrenalin were given and, in the 2 minutes following each injection, the frequency of the ventricular extrasystoles was measured. In this manner, by increasing the dose of adrenalin as necessary, it was possible to determine the dose which caused the appearance of ventricular extrasystoles at a higher frequency than or equal to half the total number of ventricular systoles.
After injection of the derivative to be tested, the same dose of adrenalin was reinjected after 5 minutes, then 30 minutes, 60 minutes, 90 minutes, etc., and its effects were compared to those observed during the control period.
The results therein are expressed as a percentage of extrasystoles (on the total number of systoles) measured during the 2 minutes following the injection of adrenalin before and after the administration of the derivative to be tested.

anesthetized dog [3] = test: Hemodynamic (cardiovascular) tolerance in the anesthetized dog; assay type: in vivo; settings: i.v.; for Cardiac frequency, maximum variation: anesthetized dog; for Cardiac Flow, percentage of variation / Cardiac Frequency, percentage of variation / Systolic Arterial Pressure, percentage of variation / Total Peripheral Resistances, percentage of variation / dp/dt/p Left Ventricular, percentage of variation: vs control period
Procedure: The hemodynamic tolerance of the derivatives of the invention was studied on dogs anesthesized with sodium pentobarbital. Endocavitary pressures were measured by means of catheters connected to Statham sensors while external recording of the electrocardiogram (E.C.G.) provided the measurement of cardiac frequency. Cardiac flow was measured by means of an electromagnetic sensor placed on the beginning of the aorta. The total peripheral resistances R were calculated from the value of the average aortic pressure (P) and the cardiac flow (Q) in accordance with the formula R=P/Q.
After measurement of the parameters during a control period, the derivatives were injected intravenously in cumulative doses (30 minute interval between doses). The variations of the parameters in relation to the control period were measured within 20 and 30 minutes after each injection and are expressed as a percentage of variation in relation to the control.
Table 2 summarizes the variations in hemodynamic parameters observed between the first and last injections.

[4] = Acute toxicity in the mouse (LD 50, Litchfield and Wilcoxon); settings: in vivo
Procedure: The acute toxicity of the derivatives of the invention were studied by intraperitoneal administration (I.P.) on the mouse (10 animals, 5 males and 5 females per dose) and calculation of the lethal dose 50 (LD 50) in accordance with the method of Litchfield and Wilcoxon (J. Pharmacol. 96, 99-113 (1949)).
In certain cases (derivatives of Examples 4, 6, 9), the LD 50 was also calculated after oral administration (P.O.) of the derivatives.

[5] = system: ventricular arrhythmias and death induced by the aconitine; test: Aconitine intoxication test in the anesthetized rat; assay type: in vivo; settings: i.v., vs untreated control
From the text: as §1
The anesthetized rat was intoxicated with an intravenous perfusion of aconitine while its electrocardiogram (ECG) was permanently recorded. During the perfusion at constant rate, the time necessary for the appearance of ventricular arrhythmias, successive extrasystoles (ESV), then stable ventricular tachycardium (TV) and the time within which the animal died were measured.
The animals were divided into a control group (untreated) and treated groups (different doses). The results are expressed as a percentage of prolonging the time of appearance of the arrhythmias and of death of the treated groups in reaction to the control group.
The results obtained are shown in Table 4 below and express the percentage of prolongation of the time of appearance of ventricular arrhythmias (ventricular extrasystoles and ventricular tachycardiums), and of the death, induced by the aconitine after an intravenous injection (I.V.) of several derivatives of the invention, in relation to a group of untreated control animals.

[6] = Lawson test (cardiac antifibrillatory power, chloroform); settings: in vivo, ip; mouse, intraperitoneal; read-out: Maximum Dose Tolerated
[7] = system: anoxic ventricular fibrillation; test: as above; assay type: in vivo; settings: ip; mouse, intraperitoneal, 10 minutes before chloroform
Procedure: The Lawson test is a test for the study of the cardiac antifibrillatory power of the derivatives. The mice (20 per group) received an intraperitoneal injection of the derivative 10 minutes before being placed in a chloroform-saturated atmosphere. Upon respiratory arrest, the thorax was opened (5 to 10 seconds) and whether or not the heart was in ventricular fibrillation was checked. The efficacy dose 50 (ED 50) of the derivative being studied is the dose which protects half the mice against anoxic ventricular fibrillation.

[8] = 1.3 mg/kg, control period 85% of ESV
[9] = cumulative doses 0.1 to 1 mg/kg
[10] = ip, intraperitoneal, read-out: LD 50 I.P.
[11] = 4 mg/kg, control period 71% of ESV
[12] = cumulative doses 0.3 to 10 mg/kg

CC1(NC(=O)CC(c2ccccc2)c2ccccc2)C2CC3CC1CN(C2)C3(C)C (single isomer, unassigned) [Example 6, N-(3,3-diphenylpropionyl)-4-amino-4,8,8-trimethyl-1-azaadamantane]
F.C. (cardiac frequency), variation (anesthetized dog [1]): 0 to +32%
HV (time of His-Purkinje conduction), variation (anesthetized dog [1]): 0 to +92%
PREA (effective auricular refractory period), variation (anesthetized dog [1]): +18 to +50%
PREV (effective ventricular refractory period), variation (anesthetized dog [1]): +10 to +20%
QRS (time of intraventricular conduction), variation (anesthetized dog [1]): 0 to +50%
St-H (time of auriculohisien conduction), variation (anesthetized dog [1]): 0 to +25%
ESV Percentage at 5 min [2, 8]: 29%
ESV Percentage at 30 min [2, 8]: 17%
ESV Percentage at 60 min [2, 8]: 17%
Cardiac frequency, maximum variation (anesthetized dog [3]): +10%
Cardiac Flow, percentage of variation (anesthetized dog [3]; [9]): -3 to -18%
Cardiac Frequency, percentage of variation (anesthetized dog [3]; [9]): -3 to +10%
Systolic Arterial Pressure, percentage of variation (anesthetized dog [3]; [9]): -8 to -16%
Total Peripheral Resistances, percentage of variation (anesthetized dog [3]; [9]): 0%
dp/dt/p Left Ventricular, percentage of variation (anesthetized dog [3]; [9]): -6 to -13%
LD50 [4, 10]: 51 mg/kg
LD50 ([4]; oral, read-out: LD 50 P.O.): 380 mg/kg
Prolongation of time of appearance of ventricular extrasystoles (ESV) ([5]; 1 mg/kg): +52%
Prolongation of time of appearance of ventricular tachycardium (TV) ([5]; 1 mg/kg): +93%
Prolongation of time to death ([5]; 1 mg/kg): +69%
Prolongation of time of appearance of ventricular extrasystoles (ESV) ([5]; 2 mg/kg): +67%
Prolongation of time of appearance of ventricular tachycardium (TV) ([5]; 2 mg/kg): +139%
Prolongation of time to death ([5]; 2 mg/kg): +97%

COc1ccc(C(=O)NC2(C)C3CC4CC2CN(C3)C4(C)C)cc1 (centres unmarked) [Example 8, N-(p-methoxybenzoyl)-4-amino 4,8,8-trimethyl-1-azaadamantane]
MTD [6]: 100 mg/kg
ESV Percentage at 5 min [2, 11]: 35%
ESV Percentage at 30 min [2, 11]: 36%
ESV Percentage at 60 min [2, 11]: 53%
Cardiac frequency, maximum variation (anesthetized dog [3]): -15%
Cardiac Flow, percentage of variation (anesthetized dog [3]; [12]): -7 to -22%
Cardiac Frequency, percentage of variation (anesthetized dog [3]; [12]): -7 to -15%
Systolic Arterial Pressure, percentage of variation (anesthetized dog [3]; [12]): -6 to -21%
Total Peripheral Resistances, percentage of variation (anesthetized dog [3]; [12]): 0%
dp/dt/p Left Ventricular, percentage of variation (anesthetized dog [3]; [12]): 0 to -28%
LD50 [4, 10]: 250 mg/kg
ED50 [7]: 49 mg/kg
Prolongation of time of appearance of ventricular extrasystoles (ESV) ([5]; 5 mg/kg): +45%
Prolongation of time of appearance of ventricular tachycardium (TV) ([5]; 5 mg/kg): +43%
Prolongation of time to death ([5]; 5 mg/kg): +46%
Prolongation of time of appearance of ventricular extrasystoles (ESV) ([5]; 10 mg/kg): +71%
Prolongation of time of appearance of ventricular tachycardium (TV) ([5]; 10 mg/kg): +84%
Prolongation of time to death ([5]; 10 mg/kg): +215%
Prolongation of time of appearance of ventricular extrasystoles (ESV) ([5]; 20 mg/kg): +98%
Prolongation of time of appearance of ventricular tachycardium (TV) ([5]; 20 mg/kg): +107%
Prolongation of time to death ([5]; 20 mg/kg): +112%
